SMILES strings stand for the structures.

We go through 1 compound from US9969696B2, “Compounds as inhibitor of DNA double-strand break repair, methods and applications thereof” (INDIAN INSTITUTE OF SCIENCE, priority 2012, dated 2018).

Data set [1] has as its system DNA end joining (NHEJ). Nature of the data set: NHEJ assay, cell-free extracts prepared from rat testes. Format: biochemical. The method, then:
ATP end-labeled oligomeric DNA substrate (75 bp) containing 4 nt overhangs at 5′ ends (about 2 h at 25° C.). In the case of vehicle control, DMSO is used. […] The reaction products are purified and resolved on about 8% denaturing polyacrylamide gel.
FIG. 2 depicts the NHEJ assay and study of joining efficiency. A. Schematic representation of NHEJ assay and substrates containing DSBs. B. Comparison of the effect of potential Ligase IV inhibitors on DNA end joining. The joined products are indicated. “M” represents [g-32 ? P] ATP end-labeled 50 by ladder. C. Quantification of the joining efficiency. […] “PSLU” is “photostimulated luminescence unit”. […] Products are resolved on 1% agarose gel and visualized. Ethidium bromide is used as a positive control for the intercalation assay.
The reaction products are resolved on 8% denaturing PAGE. “M” represents [γ-^32P]ATP end-labeled 50 by ladder. […] “M” is a 2 log DNA ladder.
A. Western blotting showing presence of Ligase IV/XRCC4 in eluted fractions. W is wash, 1 and 2 are different fractions. […] Concentrations of inhibitors used are indicated. For other details, FIG. 4 legend can be referred. C. […] Radiolabeled oligomeric DNA substrates containing 5′ compatible termini are then added to the reaction along with increasing concentrations of purified Ligase IV/XRCC4 complex (30, 60 and 120 fmol) and products are resolved on a PAGE. F. Bar diagram representing quantification of the complementation experiment performed on 5′-5′ and 5′-3′ noncomplementary ends. In all panels quantification of EJ based on 3 independent experiments is represented as mean±SEM.

Data set [2] relates to Dalton's lymphoma. Nature of the data set: Dalton's lymphoma (DLA) mouse model. Format: in vivo, mice. The text has this: Data shown is from three independent batches of experiments containing 8 animals each. […] B-1 and B-2. […] Data shown is from two independent batches of experiments containing 10 animals each. […] C.
Data shown is from two independent batches of experiments containing 5 animals each. […] C. […] DMSO treated cells are used as vehicle control. γH2AX foci formation is detected as described in FIG. 10. […] Data shown are from three independent experiments and in each case foci from a minimum of about 50 cells are counted. In panels A, B, C, D, E, significance levels are indicated (ns: not significant, *p<0.05, **p<0.01, ***p<0.001).

The subject of data set [3] is A549. Briefly: MTT assay, A549. Format: cell-based. As to conditions: Homo sapiens. On the technique in general: Tetrazolium assays rely on reduction of a dye to a coloured formazan, in cell work by metabolically active cells.
Data set [4] in a line: Solubility (characterisation data).
Data set [5] concerns CEM. Briefly: MTT assay, CEM. Format: cell-based. As to conditions: Homo sapiens, CCRF-CEM.
Data set [6] relates to MCF7 cells. Nature of the data set: Western blotting for apoptotic and DNA repair markers, MCF7. Format: cell-based, human. Particulars: MCF7, 20 and 40 μM, about 24 h. The source says:
PARP1 plays a major role in DNA damage induced apoptosis and is the main target of caspases.
Antibodies against Ki67 (cell proliferation), ATM, pATM, p53BP1, p21 (DNA repair), BID and Caspase 3 (apoptosis) are used. […] Green color indicates methyl green stained nuclei while brown indicates DNA breaks stained with diaminebenzidine, which is an indication of apoptosis. C. […] GAPDH is used as loading control.
In general terms: A western blot detects proteins with antibodies after separation by electrophoresis.

Data set [7] addresses T1, Ligase IV (Homo sapiens, UniProt P49917).
T1 construct: made in house
T1 sequence (P49917 1-911): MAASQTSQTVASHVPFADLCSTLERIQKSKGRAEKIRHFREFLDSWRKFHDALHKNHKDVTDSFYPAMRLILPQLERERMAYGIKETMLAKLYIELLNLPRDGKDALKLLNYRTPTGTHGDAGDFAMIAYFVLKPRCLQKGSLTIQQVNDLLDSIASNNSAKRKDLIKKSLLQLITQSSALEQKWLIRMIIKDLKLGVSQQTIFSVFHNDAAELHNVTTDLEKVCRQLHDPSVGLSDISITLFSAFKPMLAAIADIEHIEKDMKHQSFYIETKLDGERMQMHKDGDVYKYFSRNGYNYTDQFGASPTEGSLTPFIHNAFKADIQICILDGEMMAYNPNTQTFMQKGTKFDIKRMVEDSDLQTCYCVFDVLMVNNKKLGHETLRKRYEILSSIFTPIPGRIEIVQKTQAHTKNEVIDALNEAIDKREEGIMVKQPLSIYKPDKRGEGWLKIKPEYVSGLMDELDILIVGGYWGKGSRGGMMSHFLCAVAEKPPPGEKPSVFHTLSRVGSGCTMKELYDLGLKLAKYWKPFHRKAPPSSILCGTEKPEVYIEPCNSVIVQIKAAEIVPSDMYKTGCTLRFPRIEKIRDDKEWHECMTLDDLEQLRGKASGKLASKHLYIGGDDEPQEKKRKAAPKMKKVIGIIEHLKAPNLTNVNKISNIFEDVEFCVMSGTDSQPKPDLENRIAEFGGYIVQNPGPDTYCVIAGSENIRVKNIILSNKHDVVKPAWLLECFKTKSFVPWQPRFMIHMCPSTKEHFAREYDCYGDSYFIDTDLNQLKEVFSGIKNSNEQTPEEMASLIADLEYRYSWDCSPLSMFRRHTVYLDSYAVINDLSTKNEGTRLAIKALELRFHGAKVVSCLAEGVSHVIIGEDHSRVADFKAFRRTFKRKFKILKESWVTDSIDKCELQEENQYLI
Nature of the data set: CD spectroscopy, Ligase IV. Format: binding. Particulars: 200-260 nm. As to the method: A. Western blot analysis of KU70 and KU80 proteins in purified fractions. W is wash, 1, 2 and 3 are different fractions. B. Binding of KU proteins to DNA breaks. [−γ^32P]ATP end-labeled oligomeric DNA substrate containing DSB is incubated for about 30 min on ice with purified KU or Ligase IV/XRCC4 complex. For Ligase IV/XRCC4 supershift, first KU and DNA are incubated followed by addition of Ligase IV/XRCC4 (about 60 fmol). Reaction mixture is resolved on 1-6% native gradient PAGE. C. […] After preincubation of KU with DNA substrates, Ligase IV/XRCC4 complex (about 60 fmol) and increasing concentrations of inhibitor (10, 50, 100, 200, 500 and 700µM) are added, incubated and products are resolved on a gradient native PAGE. D-1 and D-2. […] CD spectra are obtained at a wavelength of 200-260 nm for […]

For the compound `Oc1nc(S)nc(/N=C/c2ccccc2)c1/N=C/c1ccccc1` [Compound 1, (5E,6E)-5,6-bis(benzylideneamino)-2-mercaptopyrimidin-4-ol], the “End joining in testicular extracts” value in data set [1] (Compound 1 about 150 μM added to testicular extracts) was “abrogates end joining”. Besides, the “Complementation by purified Ligase IV/XRCC4 of inhibited end joining” value in data set [1] (Compound 1 about 150 μM, Ligase IV/XRCC4 30, 60, 120 fmol added) was “restores joining for all the ends”. Besides, the “Inhibition of end joining (EJ) of various types of DSBs” value in data set [1] (cell-free repair system from rat testes, compatible, noncompatible, blunt ends) was “inhibits end joining (EJ) irrespective of type and configurations of DSB”. In addition, the “Inhibition of DNA end joining (joining efficiency)” value in data set [1] (rat testes extracts about 0.5 μg, inhibitors about 150 μM, 75 bp oligomeric DNA with 4 nt 5' overhangs) is recorded as “most potent inhibitor”. For the same compound, the “Tumor growth, together with etoposide” value in data set [2] (20 mg/kg + etoposide 10 mg/kg intraperitoneally) is given as “substantial reduction in tumor growth”. The “Tumor growth, in conjunction with radiation” value in data set [2] (about 20 mg/kg intraperitoneally + irradiation 2 Gy, 2 doses, 7 and 14 days) is listed as “significant decrease in tumor growth”. Further, the Lifespan entry in data set [2] (about 20 mg/kg, 6 doses, Compound 1 alone) is “nor increase in lifespan”. This compound also displayed an IC50 in data set [3] of around 35 µM. In addition, in data set [4] (DMF, DMSO), the “Solubility in dimethyl formamide (DMF), dimethyl sulfoxide (DMSO)” value is given as “soluble”. Further, the “Solubility in chloroform (CHCl3)” value in data set [4] (chloroform) was “Insoluble”. The Solubility in ethanol result in data set [4] (ethanol) is “Partially soluble”. Also, in data set [5], the 50% inhibitory concentration (IC50) is above 100 µM. Besides, in data set [6], the “Expression of BCL2” value is listed as “decreases”; the “Levels of BAD” value is “remain unchanged”; the MDM2 entry is “concomitant decrease in MDM2”; the “PARP1 and Caspase 3 cleavage” value is “dose-dependent increase”. In addition, in data set [6], the “Phosphorylation of ATM” value is listed as “increase in phosphorylation”; the “Precursor Caspase 9” value is “Activation of precursor Caspase 9”; the “Proapoptotic proteins PUMA and BAX” value is listed as “activation of proapoptotic proteins”; the “Shorter fragment of MCL1” value is listed as “upregulated in a dose-dependent manner”. For the same compound, the p53 result in data set [6] was “Activation of p53”. For the same compound, the “CD spectrum of Ligase IV upon addition of compound” value in data set [7] was “clear shift in the spectrum”.

Broadly, the IC50 is the concentration at which inhibition is half-maximal.
